According to patent US9850283B2, “Macrocyclic inhibitors of the PD-1/PD-L1 and CD80(B7-1)/PD-L1 protein/protein interactions” (BRISTOL-MYERS SQUIBB COMPANY, priority 2013, dated 2017):
Like-named read-outs stand apart in the source and are kept apart here. Starred links: 1 amine or outer side, 2 acyl side, 3 side chain; linkers in the order of their positions; H or OH if unused. Positions of bridges follow the written chain, without caps; N, C: chain ends. Non-standard residues stand in square brackets, D forms with d. Residues, ends and D or L forms follow the SMILES beside them. ξ: configuration not given here. Phe(3,4,5-F3) = N[C@@H](Cc1cc(F)c(F)c(F)c1)C(=O)O; Phe(2-OMe) = COc1ccccc1C[C@H](N)C(=O)O; d(cisHyp) = O=C(O)[C@H]1C[C@@H](O)CN1; Bta = N[C@@H](Cc1csc2ccccc12)C(=O)O; ξPro(4R-OH) = O=C(O)C1C[C@@H](O)CN1; cisHyp = O=C(O)[C@@H]1C[C@H](O)CN1; Hyp = O=C(O)[C@@H]1C[C@@H](O)CN1; NMeF = CN[C@@H](Cc1ccccc1)C(=O)O; X4 = O=C([C@H]1COCCN1[*:1])[*:2]; tBuAla = CC(C)(C)C[C@H](N)C(=O)O; NMeNle = CCCC[C@H](NC)C(=O)O; NMeM = CN[C@@H](CCSC)C(=O)O; Pip = O=C(O)[C@@H]1CCCCN1; NMeA = CN[C@@H](C)C(=O)O; Orn = NCCC[C@H](N)C(=O)O; Dab = NCC[C@H](N)C(=O)O; Dap = NC[C@H](N)C(=O)O; ξC = NC(CS)C(=O)O; Sar = CNCC(=O)O

Columns and labels:
[1] = biological target: T1, Human PD-L1/PD-1 (Homo sapiens, UniProt Q9NZQ7); experiment: HTRF PD-1-Ig/PD-L1-His binding assay (human PD-L1)
T1 construct: made in house; host or cells: HEK293T
T1 sequence (Q9NZQ7 with tags, fused parts or gaps): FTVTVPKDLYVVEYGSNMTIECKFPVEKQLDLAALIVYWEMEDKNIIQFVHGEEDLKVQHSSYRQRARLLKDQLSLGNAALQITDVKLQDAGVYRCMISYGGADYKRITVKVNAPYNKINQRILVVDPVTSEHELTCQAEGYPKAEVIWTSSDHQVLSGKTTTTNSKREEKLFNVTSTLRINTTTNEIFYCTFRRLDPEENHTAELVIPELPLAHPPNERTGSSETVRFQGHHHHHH
Outline: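 Soluble PD-1-Ig binding to PD-L1-His measured by HTRF in dPBS with 0.1% BSA and 0.05% Tween-20. Detection used europium cryptate anti-Ig antibody (1 nM final) and APC anti-His antibody (20 nM final) added on top of the binding reaction.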

[2] = biological target: T2, LK35.2-hPD-L1 cells / PE-labeled PD-1-Ig (Homo sapiens, UniProt Q9NZQ7); experiment: LK35.2-hPD-L1 cell binding high-content screening assay; assay type: cell-based
T2 construct: expressed in transfected cells; host or cells: LK35.2 mouse B cell line
T2 sequence (Q9NZQ7 19-290): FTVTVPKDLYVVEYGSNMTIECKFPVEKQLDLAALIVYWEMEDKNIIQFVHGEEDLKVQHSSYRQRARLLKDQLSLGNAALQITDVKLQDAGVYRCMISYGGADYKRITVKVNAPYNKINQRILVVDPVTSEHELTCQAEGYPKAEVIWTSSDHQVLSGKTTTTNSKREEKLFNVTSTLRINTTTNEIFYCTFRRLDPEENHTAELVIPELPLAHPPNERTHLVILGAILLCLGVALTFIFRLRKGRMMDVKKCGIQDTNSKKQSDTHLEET
Outline: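 Binding of PE-conjugated human PD-1-Ig (1 nM final) to human PD-L1 stably expressed on a mouse B-cell line (LK35.2) was measured by high-content imaging after washes. Compound and labeled PD-1-Ig were co-incubated 1 h at 37 °C with cells in RPMI/10% FCS.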

[3] = cluster symbol, read-out: HTRF IC50 cluster
[4] = cell binding assay, cell line not given, cluster symbol, read-out: CBA IC50 cluster
[5] = cluster symbol, cell line of CBA not given (LK35.2-hPD-L1 or 293T-hPD-L1), read-out: CBA IC50 cluster

SMILES | IC50 [1, 3] [nM] | IC50 [2, 4] [nM] | IC50 [2, 5] [nM] | IC50 ([1]; HTRF IC50 value, value given instead of cluster) [nM] | IC50 ([2]; CBA IC50 value, cell binding assay, cell line not given, value given instead of cluster) [nM]
CCCC[C@H]1C(=O)N2C[C@H](O)C[C@@H]2C(=O)N[C@@H](CC(=O)O)C(=O)N[C@@H](C(C)C)C(=O)N(C)[C@@H](Cc2ccccc2)C(=O)N[C@@H](CCC(=O)O)C(=O)N2CCOC[C@@H]2C(=O)N[C@@H](Cc2c[nH]c3ccccc23)C(=O)N[C@@H](Cc2ccc(O)cc2)C(=O)N[C@@H](CCCN)C(=O)N[C@H](C(=O)NCC(N)=O)CSCC(=O)N[C@@H](Cc2cc(F)c(F)c(F)c2)C(=O)N(C)[C@@H](Cc2ccccc2)C(=O)N1C [Example 3599] ({CH2CO}-[Phe(3,4,5-F3)][NMeF][NMeNle][d(cisHyp)]DV[NMeF]E[X4]WY[Orn]CG-NH2; thioether N-13) | 0.385 to 6.74 | 0.158 to 4.71 |  |  | 
CCCC[C@H]1C(=O)N(C)[C@@H](CCCC)C(=O)N[C@@H](CC(C)(C)C)C(=O)N[C@H](C(=O)NCC(N)=O)CSCC(=O)N[C@@H](Cc2ccc(O)cc2)C(=O)N(C)[C@@H](C)C(=O)N[C@@H](CC(N)=O)C(=O)N2CCC[C@H]2C(=O)N[C@@H](Cc2c[nH]cn2)C(=O)N[C@@H](CCC(N)=O)C(=O)N2C[C@H](O)C[C@H]2C(=O)N[C@@H](Cc2c[nH]c3ccccc23)C(=O)N[C@@H](CO)C(=O)N[C@@H](Cc2c[nH]c3ccccc23)C(=O)N1C [Example 5076] ({CH2CO}-Y[NMeA]NPHQ[Hyp]WSW[NMeNle][NMeNle][tBuAla]CG-NH2; thioether N-14) | 6.76 to 30.3 | 4.78 to 72.9 |  |  | 
CCCC[C@H]1C(=O)N(C)[C@@H](CCCC)C(=O)N[C@@H](Cc2cnc[nH]2)C(=O)N[C@H](C(=O)NCC(N)=O)CSCC(=O)N[C@@H](Cc2ccccc2)C(=O)N(C)[C@@H](C)C(=O)N[C@@H](CC(N)=O)C(=O)N2CCC[C@H]2C(=O)N[C@@H](Cc2cnc[nH]2)C(=O)N[C@@H](CC(C)C)C(=O)N(C)CC(=O)N[C@@H](Cc2c[nH]c3ccccc23)C(=O)N[C@@H](CO)C(=O)N[C@@H](Cc2c[nH]c3ccccc23)C(=O)N1C [Example 5013] ({CH2CO}-F[NMeA]NPHL[Sar]WSW[NMeNle][NMeNle]HCG-NH2; thioether N-14) | > 30.5 | > 74.3 |  |  | 
CCCC[C@H]1C(=O)N(C)[C@@H](CCCC)C(=O)N[C@@H](CCCNC(=N)N)C(=O)N[C@H](C(=O)NCC(N)=O)CSCC(=O)N[C@@H](Cc2ccccc2OC)C(=O)N(C)[C@@H](C)C(=O)N[C@@H](CC(N)=O)C(=O)N2CCC[C@H]2C(=O)N[C@@H](Cc2cnc[nH]2)C(=O)N[C@@H](CC(C)C)C(=O)N2CCC[C@H]2C(=O)N[C@@H](Cc2c[nH]c3ccccc23)C(=O)N[C@@H](CO)C(=O)N[C@@H](Cc2c[nH]c3ccccc23)C(=O)N1C [Example 7017] ({CH2CO}-[Phe(2-OMe)][NMeA]NPHLPWSW[NMeNle][NMeNle]RCG-NH2; thioether N-14) | 0.385 to 6.74 | 4.78 to 72.9 |  |  | 
CCCC[C@H]1C(=O)N(C)[C@@H](CCCC)C(=O)N[C@@H](C)C(=O)N[C@H](C(=O)NCC(N)=O)CSCC(=O)N[C@@H](Cc2ccc(O)cc2)C(=O)N(C)[C@@H](C)C(=O)N[C@@H](CC(=O)O)C(=O)N2CCC[C@H]2C(=O)N[C@@H](Cc2c[nH]cn2)C(=O)N[C@@H](CCCCN)C(=O)N2C[C@H](O)CC2C(=O)N[C@@H](Cc2c[nH]c3ccccc23)C(=O)N[C@@H](CO)C(=O)N[C@@H](Cc2c[nH]c3ccccc23)C(=O)N1C (stereo partly drawn) [Example 1202] ({CH2CO}-Y[NMeA]DPHK[ξPro(4R-OH)]WSW[NMeNle][NMeNle]ACG-NH2; thioether N-14) | 0.385 to 6.74 |  | 0.158 to 4.71 |  | 
CCCC[C@H]1C(=O)N(C)CC(=O)N[C@@H](CC(=O)O)C(=O)N[C@@H](C(C)C)C(=O)N(C)[C@@H](Cc2ccccc2)C(=O)N[C@@H](CCC(=O)O)C(=O)N(C)CC(=O)N[C@@H](Cc2c[nH]c3ccccc23)C(=O)N[C@@H](Cc2ccc(O)cc2)C(=O)N[C@@H](CCCNC(=N)N)C(=O)N[C@H](C(=O)NCC(N)=O)CSCC(=O)N[C@@H](Cc2ccccc2)C(=O)N(C)[C@@H](Cc2ccccc2)C(=O)N1C [Example 3559] (HELM PEPTIDE1{[O=C(C[*:3])[*:2]].F.[meF].[CCCC[C@@H](C(=O)[*:2])N(C)[*:1]].[Sar].D.V.[meF].E.[Sar].W.Y.R.C.G.[am]}$PEPTIDE1,PEPTIDE1,1:R3-14:R3$$$V2.0) |  |  |  | 12.1 | 48
CCCC[C@H]1C(=O)N(C)[C@@H](CCCC)C(=O)N[C@@H](CCCNC(=N)N)C(=O)N[C@H](C(=O)NCC(N)=O)CSCC(=O)N[C@@H](Cc2ccc(O)cc2)C(=O)N(C)[C@@H](C)C(=O)N[C@@H](CC(N)=O)C(=O)N2CCC[C@H]2C(=O)N[C@@H](CN)C(=O)N[C@@H](CC(C)C)C(=O)N2CCC[C@H]2C(=O)N[C@@H](Cc2c[nH]c3ccccc23)C(=O)N[C@@H](CO)C(=O)N[C@@H](Cc2c[nH]c3ccccc23)C(=O)N1C [Example 1113] ({CH2CO}-Y[NMeA]NP[Dap]LPWSW[NMeNle][NMeNle]RCG-NH2; thioether N-14) | 0.385 to 6.74 |  | 0.158 to 4.71 |  | 
CCCC[C@H]1C(=O)N(C)[C@@H](CCCC)C(=O)N[C@@H](CCCN)C(=O)N[C@H](C(=O)NCC(N)=O)CSCC(=O)N[C@@H](Cc2ccc(O)cc2)C(=O)N(C)[C@@H](C)C(=O)N[C@@H](CC(N)=O)C(=O)N2CCC[C@H]2C(=O)N[C@@H](CN)C(=O)N[C@@H](CC(C)C)C(=O)N2C[C@H](O)C[C@H]2C(=O)N[C@@H](Cc2c[nH]c3ccccc23)C(=O)N[C@@H](CO)C(=O)N[C@@H](Cc2csc3ccccc23)C(=O)N1C [Example 1139] ({CH2CO}-Y[NMeA]NP[Dap]L[Hyp]WS[Bta][NMeNle][NMeNle][Orn]CG-NH2; thioether N-14) | 0.385 to 6.74 |  | 0.158 to 4.71 |  | 
CCCC[C@H]1C(=O)N(C)[C@@H](CCCC)C(=O)N[C@@H](CCCN)C(=O)N[C@H](C(=O)NCC(N)=O)CSCC(=O)N[C@@H](Cc2ccc(O)cc2)C(=O)N(C)[C@@H](C)C(=O)N[C@@H](CC(=O)O)C(=O)N2CCC[C@H]2C(=O)N[C@@H](CN)C(=O)N[C@@H](CCC(N)=O)C(=O)N2C[C@H](O)C[C@H]2C(=O)N[C@@H](Cc2c[nH]c3ccccc23)C(=O)N[C@@H](CCN)C(=O)N[C@@H](Cc2csc3ccccc23)C(=O)N1C [Example 1182] ({CH2CO}-Y[NMeA]DP[Dap]Q[Hyp]W[Dab][Bta][NMeNle][NMeNle][Orn]CG-NH2; thioether N-14) | 0.385 to 6.74 |  | 0.158 to 4.71 |  | 
CCCC[C@H]1C(=O)N(C)[C@@H](CCSC)C(=O)N[C@@H](C)C(=O)NC(C(=O)NCC(N)=O)CSCC(=O)N[C@@H](Cc2ccc(O)cc2)C(=O)N(C)[C@@H](C)C(=O)N[C@@H](CC(N)=O)C(=O)N2CCC[C@H]2C(=O)N[C@@H](CN)C(=O)N[C@@H](CC(C)C)C(=O)N2CCC[C@H]2C(=O)N[C@@H](Cc2c[nH]c3ccccc23)C(=O)N[C@@H](CO)C(=O)N[C@@H](Cc2c[nH]c3ccccc23)C(=O)N1C (some centres unmarked) [Example 9085] ({CH2CO}-Y[NMeA]NP[Dap]LPWSW[NMeNle][NMeM]A[ξC]G-NH2; thioether N-14) | 0.385 to 6.74 | 4.78 to 72.9 |  |  | 
CCCC[C@H]1C(=O)N(C)[C@@H](CCCC)C(=O)N[C@@H](CN)C(=O)N[C@H](C(=O)NCC(N)=O)CSCC(=O)N[C@@H](Cc2ccc(O)cc2)C(=O)N(C)[C@@H](C)C(=O)N[C@@H](CC(=O)O)C(=O)N2CCC[C@H]2C(=O)N[C@@H](Cc2c[nH]cn2)C(=O)N[C@@H](CCC(N)=O)C(=O)N2C[C@H](O)C[C@H]2C(=O)N[C@@H](Cc2c[nH]c3ccccc23)C(=O)N[C@@H](CO)C(=O)N[C@@H](Cc2c[nH]c3ccccc23)C(=O)N1C [Example 5101] ({CH2CO}-Y[NMeA]DPHQ[Hyp]WSW[NMeNle][NMeNle][Dap]CG-NH2; thioether N-14) | 0.385 to 6.74 | 0.158 to 4.71 |  |  | 
CCCC[C@H]1C(=O)N(C)[C@@H](CCCC)C(=O)N[C@@H](CCCNC(=N)N)C(=O)N[C@H](C(=O)NCC(N)=O)CSCC(=O)N[C@@H](Cc2ccc(O)cc2)C(=O)N2CCC[C@H]2C(=O)N[C@@H](CC(N)=O)C(=O)N2CCC[C@H]2C(=O)N[C@@H](Cc2cnc[nH]2)C(=O)N[C@@H](CC(C)C)C(=O)N2C[C@@H](O)C[C@H]2C(=O)N[C@@H](Cc2c[nH]c3ccccc23)C(=O)N[C@@H](CO)C(=O)N[C@@H](Cc2c[nH]c3ccccc23)C(=O)N1C [Example 1148] ({CH2CO}-YPNPHL[cisHyp]WSW[NMeNle][NMeNle]RCG-NH2; thioether N-14) | 6.76 to 30.3 |  | 4.78 to 72.9 |  | 
CCCC[C@H]1C(=O)N(C)[C@@H](CCCC)C(=O)N[C@@H](CCCN)C(=O)N[C@H](C(=O)NCC(N)=O)CSCC(=O)N[C@@H](Cc2ccc(O)cc2)C(=O)N2CCCC[C@H]2C(=O)N[C@@H](CC(=O)O)C(=O)N2CCC[C@H]2C(=O)N[C@@H](CN)C(=O)N[C@@H](CC(C)C)C(=O)N2C[C@H](O)C[C@H]2C(=O)N[C@@H](Cc2c[nH]c3ccccc23)C(=O)N[C@@H](CO)C(=O)N[C@@H](Cc2c[nH]c3ccccc23)C(=O)N1C [Example 1235] ({CH2CO}-Y[Pip]DP[Dap]L[Hyp]WSW[NMeNle][NMeNle][Orn]CG-NH2; thioether N-14) | 6.76 to 30.3 |  | 0.158 to 4.71 |  | 
